According to PubChem BioAssay AID1963440 (Molecular Pharmacology Branch, DTP, NCI, 2024):

System: NCI-H1417 complex spheroids, growth % test/control
Test: Anticancer human tumor NCI-H1417 cell line growth inhibition [Asc];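 also: spheroids exposed to compounds for 7 days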;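 as to viability, T/C: 100% = DMSO vehicle control wells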
Settings: for IC50: curve of first compound; for viability, T/C: stronger effect = lower value
Procedure, shortened: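 Concentration series start at each agent's clinical Cmax, or at 10 microM when none is established, and drop in half-log steps; agents are applied alone or together to complex spheroids built with HUVEC and hMSC.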

[1] = second compound 0.1 µM, first compound 0.0316 µM
[2] = second compound 0.1 µM, first compound 0.1 µM
[3] = second compound 0.1 µM, first compound 0.316 µM
[4] = second compound 0.1 µM, first compound 1 µM
[5] = second compound 0.316 µM, first compound 0.0316 µM
[6] = second compound 0.316 µM, first compound 0.1 µM
[7] = second compound 0.316 µM, first compound 0.316 µM
[8] = second compound 0.316 µM, first compound 1 µM
[9] = second compound 1 µM, first compound 0.0316 µM
[10] = second compound 1 µM, first compound 0.1 µM
[11] = second compound 1 µM, first compound 0.316 µM
[12] = second compound 1 µM, first compound 1 µM
[13] = second compound 3.16 µM, first compound 0.0316 µM
[14] = second compound 3.16 µM, first compound 0.1 µM
[15] = second compound 3.16 µM, first compound 0.316 µM
[16] = second compound 3.16 µM, first compound 1 µM
[17] = second compound 10 µM, first compound 0.0316 µM
[18] = second compound 10 µM, first compound 0.1 µM
[19] = second compound 10 µM, first compound 0.316 µM
[20] = second compound 10 µM, first compound 1 µM

## C=CC(=O)N1CCN(c2nc(=O)n(-c3c(C)ccnc3C(C)C)c3nc(-c4c(O)cccc4F)c(F)cc23)C(C)C1 (stereo not given) + Cc1c(S(C)(=O)=O)c(-c2cc(F)cc(N3CCN(c4ccc(NS(=O)(=O)c5ccc(NC(CCN6CCC(C(=O)OCCCP(=O)(O)O)CC6)CSc6ccccc6)c(S(=O)(=O)C(F)(F)F)c5)cc4)CC3)c2)c(-c2ccc(Cl)cc2)n1C(C)C
Second compound 0.1 µM
  IC50: > 10000 nM
Second compound 0.316 µM
  IC50: 3960 nM
Second compound 1 µM
  IC50: < 31.6 nM
Second compound 3.16 µM
  IC50: < 31.6 nM
Second compound 10 µM
  IC50: < 31.6 nM
[1]
  viability, T/C: 79.9%
[2]
  viability, T/C: 97.7%
[3]
  viability, T/C: 94%
[4]
  viability, T/C: 88.7%
Second compound 0.1 µM, first compound 3.16 µM
  viability, T/C: 79.5%
Second compound 0.1 µM, first compound 10 µM
  viability, T/C: 76.5%
[5]
  viability, T/C: 50.7%
[6]
  viability, T/C: 52.8%
[7]
  viability, T/C: 59.2%
[8]
  viability, T/C: 55.8%
Second compound 0.316 µM, first compound 3.16 µM
  viability, T/C: 60.4%
Second compound 0.316 µM, first compound 10 µM
  viability, T/C: 26.5%
[9]
  viability, T/C: 12.8%
[10]
  viability, T/C: 19%
[11]
  viability, T/C: 19.2%
[12]
  viability, T/C: 27.2%
Second compound 1 µM, first compound 3.16 µM
  viability, T/C: 15.7%
Second compound 1 µM, first compound 10 µM
  viability, T/C: 6.31%
[13]
  viability, T/C: 3.89%
[14]
  viability, T/C: 4.22%
[15]
  viability, T/C: 4.64%
[16]
  viability, T/C: 3.72%
Second compound 3.16 µM, first compound 3.16 µM
  viability, T/C: 3.98%
Second compound 3.16 µM, first compound 10 µM
  viability, T/C: 3.94%
[17]
  viability, T/C: 2.86%
[18]
  viability, T/C: 2.89%
[19]
  viability, T/C: 3.43%
[20]
  viability, T/C: 2.4%
Second compound 10 µM, first compound 3.16 µM
  viability, T/C: 3.1%
Second compound 10 µM, first compound 10 µM
  viability, T/C: 3.85%

## NC(=O)C(=Cn1cnc(-c2cc(C(F)(F)F)cc(C(F)(F)F)c2)n1)c1cncnc1 + Cc1c(S(C)(=O)=O)c(-c2cc(F)cc(N3CCN(c4ccc(NS(=O)(=O)c5ccc(NC(CCN6CCC(C(=O)OCCCP(=O)(O)O)CC6)CSc6ccccc6)c(S(=O)(=O)C(F)(F)F)c5)cc4)CC3)c2)c(-c2ccc(Cl)cc2)n1C(C)C
Second compound 0.1 µM
  IC50: 11.1 nM
Second compound 0.316 µM
  IC50: < 0.949 nM
Second compound 1 µM
  IC50: < 0.949 nM
Second compound 3.16 µM
  IC50: < 0.949 nM
Second compound 10 µM
  IC50: < 0.949 nM
Second compound 0.1 µM, first compound 0.000949 µM
  viability, T/C: 75.4%
Second compound 0.1 µM, first compound 0.003 µM
  viability, T/C: 77.7%
Second compound 0.1 µM, first compound 0.00949 µM
  viability, T/C: 51.9%
Second compound 0.1 µM, first compound 0.03 µM
  viability, T/C: 24.1%
Second compound 0.1 µM, first compound 0.0949 µM
  viability, T/C: 8.22%
Second compound 0.1 µM, first compound 0.3 µM
  viability, T/C: 3.52%
Second compound 0.316 µM, first compound 0.000949 µM
  viability, T/C: 38.6%
Second compound 0.316 µM, first compound 0.003 µM
  viability, T/C: 29.7%
Second compound 0.316 µM, first compound 0.00949 µM
  viability, T/C: 20.7%
Second compound 0.316 µM, first compound 0.03 µM
  viability, T/C: 10.5%
Second compound 0.316 µM, first compound 0.0949 µM
  viability, T/C: 3.84%
Second compound 0.316 µM, first compound 0.3 µM
  viability, T/C: 1.35%
Second compound 1 µM, first compound 0.000949 µM
  viability, T/C: 8.75%
Second compound 1 µM, first compound 0.003 µM
  viability, T/C: 8.33%
Second compound 1 µM, first compound 0.00949 µM
  viability, T/C: 5.84%
Second compound 1 µM, first compound 0.03 µM
  viability, T/C: 3.45%
Second compound 1 µM, first compound 0.0949 µM
  viability, T/C: 1.82%
Second compound 1 µM, first compound 0.3 µM
  viability, T/C: 0.83%
Second compound 3.16 µM, first compound 0.000949 µM
  viability, T/C: 2.8%
Second compound 3.16 µM, first compound 0.003 µM
  viability, T/C: 2.41%
Second compound 3.16 µM, first compound 0.00949 µM
  viability, T/C: 2.15%
Second compound 3.16 µM, first compound 0.03 µM
  viability, T/C: 2.26%
Second compound 3.16 µM, first compound 0.0949 µM
  viability, T/C: 1.59%
Second compound 3.16 µM, first compound 0.3 µM
  viability, T/C: 0.92%
Second compound 10 µM, first compound 0.000949 µM
  viability, T/C: 2.33%
Second compound 10 µM, first compound 0.003 µM
  viability, T/C: 1.83%
Second compound 10 µM, first compound 0.00949 µM
  viability, T/C: 2.16%
Second compound 10 µM, first compound 0.03 µM
  viability, T/C: 2.37%
Second compound 10 µM, first compound 0.0949 µM
  viability, T/C: 1.29%
Second compound 10 µM, first compound 0.3 µM
  viability, T/C: 0.5%

## CCN1CCN(Cc2ccc(Nc3ncc(F)c(-c4cc(F)c5nc(C)n(C(C)C)c5c4)n3)nc2)CC1 + Cc1c(S(C)(=O)=O)c(-c2cc(F)cc(N3CCN(c4ccc(NS(=O)(=O)c5ccc(NC(CCN6CCC(C(=O)OCCCP(=O)(O)O)CC6)CSc6ccccc6)c(S(=O)(=O)C(F)(F)F)c5)cc4)CC3)c2)c(-c2ccc(Cl)cc2)n1C(C)C
Second compound 0.1 µM
  IC50: > 1000 nM
Second compound 0.316 µM
  IC50: < 3.16 nM
Second compound 1 µM
  IC50: < 3.16 nM
Second compound 3.16 µM
  IC50: < 3.16 nM
Second compound 10 µM
  IC50: < 3.16 nM
Second compound 0.1 µM, first compound 0.00316 µM
  viability, T/C: 88.6%
Second compound 0.1 µM, first compound 0.01 µM
  viability, T/C: 83.6%
[1]
  viability, T/C: 82.2%
[2]
  viability, T/C: 69.5%
[3]
  viability, T/C: 66.6%
[4]
  viability, T/C: 58.1%
Second compound 0.316 µM, first compound 0.00316 µM
  viability, T/C: 47.8%
Second compound 0.316 µM, first compound 0.01 µM
  viability, T/C: 45.8%
[5]
  viability, T/C: 44.7%
[6]
  viability, T/C: 28.9%
[7]
  viability, T/C: 24%
[8]
  viability, T/C: 21%
Second compound 1 µM, first compound 0.00316 µM
  viability, T/C: 14.4%
Second compound 1 µM, first compound 0.01 µM
  viability, T/C: 12%
[9]
  viability, T/C: 10.6%
[10]
  viability, T/C: 7.35%
[11]
  viability, T/C: 6.95%
[12]
  viability, T/C: 2.98%
Second compound 3.16 µM, first compound 0.00316 µM
  viability, T/C: 2.92%
Second compound 3.16 µM, first compound 0.01 µM
  viability, T/C: 2.69%
[13]
  viability, T/C: 2.77%
[14]
  viability, T/C: 2.85%
[15]
  viability, T/C: 2.68%
[16]
  viability, T/C: 3.02%
Second compound 10 µM, first compound 0.00316 µM
  viability, T/C: 2.2%
Second compound 10 µM, first compound 0.01 µM
  viability, T/C: 2.36%
[17]
  viability, T/C: 2.21%
[18]
  viability, T/C: 1.72%
[19]
  viability, T/C: 2.26%
[20]
  viability, T/C: 2.79%

## O=C(c1cc(Cc2n[nH]c(=O)c3ccccc23)ccc1F)N1CCN(C(=O)C2CC2)CC1 + CCN1C(C(=O)NC23CCC(C(=O)O)(CC2)CC3)C(c2cccc(Cl)c2F)C2(C(=O)Nc3cc(Cl)ccc32)C12CCCCC2
Second compound 0.03 µM
  IC50: 2860 nM
Second compound 0.0949 µM
  IC50: 3970 nM
Second compound 0.3 µM
  IC50: 2690 nM
Second compound 0.949 µM
  IC50: 2960 nM
Second compound 3 µM
  IC50: 3210 nM
Second compound 0.03 µM, first compound 0.0316 µM
  viability, T/C: 98.2%
Second compound 0.03 µM, first compound 0.1 µM
  viability, T/C: 96.3%
Second compound 0.03 µM, first compound 0.316 µM
  viability, T/C: 107%
Second compound 0.03 µM, first compound 1 µM
  viability, T/C: 82.3%
Second compound 0.03 µM, first compound 3.16 µM
  viability, T/C: 48%
Second compound 0.03 µM, first compound 10 µM
  viability, T/C: 33.6%
Second compound 0.0949 µM, first compound 0.0316 µM
  viability, T/C: 101%
Second compound 0.0949 µM, first compound 0.1 µM
  viability, T/C: 110%
Second compound 0.0949 µM, first compound 0.316 µM
  viability, T/C: 88.7%
Second compound 0.0949 µM, first compound 1 µM
  viability, T/C: 84.8%
Second compound 0.0949 µM, first compound 3.16 µM
  viability, T/C: 53.6%
Second compound 0.0949 µM, first compound 10 µM
  viability, T/C: 29.9%
Second compound 0.3 µM, first compound 0.0316 µM
  viability, T/C: 101%
Second compound 0.3 µM, first compound 0.1 µM
  viability, T/C: 103%
Second compound 0.3 µM, first compound 0.316 µM
  viability, T/C: 98%
Second compound 0.3 µM, first compound 1 µM
  viability, T/C: 76.8%
Second compound 0.3 µM, first compound 3.16 µM
  viability, T/C: 46.1%
Second compound 0.3 µM, first compound 10 µM
  viability, T/C: 31.2%
Second compound 0.949 µM, first compound 0.0316 µM
  viability, T/C: 95.3%
Second compound 0.949 µM, first compound 0.1 µM
  viability, T/C: 105%
Second compound 0.949 µM, first compound 0.316 µM
  viability, T/C: 82.9%
Second compound 0.949 µM, first compound 1 µM
  viability, T/C: 76.2%
Second compound 0.949 µM, first compound 3.16 µM
  viability, T/C: 47.3%
Second compound 0.949 µM, first compound 10 µM
  viability, T/C: 29.8%
Second compound 3 µM, first compound 0.0316 µM
  viability, T/C: 94%
Second compound 3 µM, first compound 0.1 µM
  viability, T/C: 90.1%
Second compound 3 µM, first compound 0.316 µM
  viability, T/C: 95.9%
Second compound 3 µM, first compound 1 µM
  viability, T/C: 74.8%
Second compound 3 µM, first compound 3.16 µM
  viability, T/C: 51.5%
Second compound 3 µM, first compound 10 µM
  viability, T/C: 28.3%
